In US11517577B2, “Fluorinated bile acid derivatives” (NZP UK LIMITED, priority 2018, dated 2022):

Target: T1, Human Farnesoid X Receptor (NR1H4, FXR) (Homo sapiens, UniProt Q96RI1)
T1 sequence (Q96RI1 1-486): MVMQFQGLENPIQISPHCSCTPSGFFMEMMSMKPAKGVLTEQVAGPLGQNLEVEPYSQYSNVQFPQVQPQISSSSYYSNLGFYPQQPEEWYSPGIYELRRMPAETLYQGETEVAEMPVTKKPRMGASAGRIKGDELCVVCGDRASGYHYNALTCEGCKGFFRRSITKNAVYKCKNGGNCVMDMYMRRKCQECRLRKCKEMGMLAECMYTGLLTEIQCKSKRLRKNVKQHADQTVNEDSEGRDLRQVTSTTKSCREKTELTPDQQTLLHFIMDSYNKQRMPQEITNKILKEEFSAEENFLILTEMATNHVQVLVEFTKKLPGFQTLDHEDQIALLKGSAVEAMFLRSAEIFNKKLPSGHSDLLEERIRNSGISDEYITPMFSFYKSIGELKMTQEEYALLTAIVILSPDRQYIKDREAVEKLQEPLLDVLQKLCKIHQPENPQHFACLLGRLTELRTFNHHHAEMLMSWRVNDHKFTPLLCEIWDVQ
Assay: FXR reporter assay, EC50 and efficacy (Indigo Biosciences luciferase reporter cells)
Assay type: cell-based
Conditions: for Efficacy: maximum point on the dose response curve, GW4064 designated as 100%
Protocol: The compounds of the invention were assayed for agonist activity at the FXR receptor.
Dose-response assays were performed as described in the technical manual of the Human Farnesoid X Receptor (NR1H4, FXR) Reporter Assay System (Indigo Biosciences Human Farnesoid X Receptor (NR1H4, FXR) Reporter Assay System, Technical Manual (version 7.1b), at the World Wide Web (www)indiqobiosciences.com).
FXR reporter cells consisting of an FXR-responsive promoter gene functionally linked to the luciferase gene were defrosted and seeded into a 96-well plate and these cells were immediately dosed with the test compounds at different concentrations (10-0.05 μM) according to the manufacturer's protocol. […] Following this, the induction of luciferase activity, which is the measure of the agonist activity, was quantified by using luminometer (TECAN) according to the manufacturer's protocol.

Compound | EC50 | Efficacy
CC[C@H]1[C@@H](O)[C@@H]2[C@H](CC[C@]3(C)[C@@H]([C@H](C)CCC(=O)NS(=O)(=O)c4cccc(F)c4)CC[C@@H]23)[C@@]2(C)CC[C@@H](O)[C@H](F)[C@@H]12 [Compound 16, N-(3α,7α-Dihydroxyl-4β-fluoro-6α-ethyl-5β-cholan-24-oyl)-m-fluorophenyl sulfonamide] | 46 nM | 143%
CC[C@H]1[C@@H](O)[C@@H]2[C@H](CC[C@]3(C)[C@@H]([C@H](C)CCC(=O)NS(=O)(=O)c4ccc(F)cc4)CC[C@@H]23)[C@@]2(C)CC[C@@H](O)[C@H](F)[C@@H]12 [Compound 15, N-(3α,7α-Dihydroxyl-4β-fluoro-6α-ethyl-5β-cholan-24-oyl)-p-fluorobenzene sulfonamide] | 38 nM | 98%
CC[C@H]1[C@@H](O)[C@@H]2[C@H](CC[C@]3(C)[C@@H]([C@H](C)CCC(=O)NS(=O)(=O)c4ccccc4F)CC[C@@H]23)[C@@]2(C)CC[C@@H](O)[C@H](F)[C@@H]12 [Compound 17, N-(3α,7α-Dihydroxyl-4β-fluoro-6α-ethyl-5β-cholan-24-oyl)-o-fluorophenyl sulfonamide] | 34 nM | 121%
CC[C@@H]1[C@@H]2[C@@H](F)[C@H](O)CC[C@]2(C)C2CC[C@@]3(C)C(CCC3[C@H](C)CCNC(=O)NS(=O)(=O)c3ccc(F)cc3)C2[C@@H]1O (stereo partly drawn) [Compound 6, N,N′-(3α,7α-Dihydroxyl-4β-fluoro-6α-ethyl-24-nor-5β-cholan-23-yl)-p-fluorobenzene sulfonyl urea] | 32 nM | 187%
CC[C@H]1[C@@H](O)[C@@H]2[C@H](CC[C@]3(C)[C@@H]([C@H](C)CCC(=O)NS(=O)(=O)c4cccc(C(F)(F)F)c4)CC[C@@H]23)[C@@]2(C)CC[C@@H](O)[C@H](F)[C@@H]12 [Compound 19, N-(3α,7α-Dihydroxyl-4β-fluoro-6α-ethyl-5β-cholan-24-oyl)-3-trifluoromethylphenyl sulfonamide] | 50 nM | 136%
CC[C@@H]1[C@@H]2[C@@H](F)[C@H](O)CC[C@]2(C)C2CC[C@@]3(C)C(CCC3[C@H](C)CCNC(=O)NS(=O)(=O)c3ccc(OC(F)(F)F)cc3)C2[C@@H]1O (stereo partly drawn) [Compound 12, N,N′-(3α,7α-Dihydroxyl-4β-fluoro-6α-ethyl-24-nor-5β-cholan-23-yl)-4-(trifluoromethoxy)benzene sulfonyl urea] | 27 nM | 176%
CC[C@@H]1[C@@H]2[C@@H](F)[C@H](O)CC[C@]2(C)C2CC[C@@]3(C)C(CCC3[C@H](C)CCNC(=O)NS(=O)(=O)c3ccccc3F)C2[C@@H]1O (stereo partly drawn) [Compound 8, N,N′-(3α,7α-Dihydroxyl-4β-fluoro-6α-ethyl-24-nor-5β-cholan-23-yl)-o-fluorobenzene sulfonyl urea] | 43 nM | 159%
CC[C@H]1[C@@H](O)C2C3CCC([C@H](C)CCNC(=O)NS(=O)(=O)c4ccccc4)[C@@]3(C)CCC2[C@@]2(C)CC[C@@H](O)C[C@@H]12 (stereo partly drawn) [Comparative compound A, N,N′-(3α,7α-Dihydroxyl-6α-ethyl-24-nor-5β-cholan-23-yl)-benzene sulfonyl urea, reference compound] | 32 nM | 147%
CC[C@@H]1[C@@H]2[C@@H](F)[C@H](O)CC[C@]2(C)C2CC[C@@]3(C)C(CCC3[C@H](C)CCNC(=O)NS(=O)(=O)c3cccc(C)c3)C2[C@@H]1O (stereo partly drawn) [Compound 4, N,N′-(3α,7α-Dihydroxyl-4β-fluoro-6α-ethyl-24-nor-5β-cholan-23-yl)-m-toluene sulfonyl urea] | 23 nM | 148%
CC[C@@H]1[C@@H]2[C@@H](F)[C@H](O)CC[C@]2(C)C2CC[C@@]3(C)C(CCC3[C@H](C)CCNC(=O)NS(=O)(=O)c3ccc(C(C)(C)C)cc3)C2[C@@H]1O (stereo partly drawn) [Compound 3, N,N′-(3α,7α-Dihydroxyl-4β-fluoro-6α-ethyl-24-nor-5β-cholan-23-yl)-4-(tert-butyl) benzene sulfonyl urea] | 19 nM | 151%
CC[C@@H]1[C@@H]2[C@@H](F)[C@H](O)CC[C@]2(C)C2CC[C@@]3(C)C(CCC3[C@H](C)CCNC(=O)NS(=O)(=O)c3ccccc3C)C2[C@@H]1O (stereo partly drawn) [Compound 5, N,N′-(3α,7α-Dihydroxyl-4β-fluoro-6α-ethyl-24-nor-5β-cholan-23-yl)-o-toluene sulfonyl urea] | 28 nM | 166%
CC[C@H]1[C@@H](O)[C@@H]2[C@H](CC[C@]3(C)[C@@H]([C@H](C)CCC(=O)NS(C)(=O)=O)CC[C@@H]23)[C@@]2(C)CC[C@@H](O)[C@H](F)[C@@H]12 [Comparative compound C, N-(3α,7α-Dihydroxyl-4β-fluoro-6α-ethyl-5β-cholan-24-oyl)-methyl sulfonamide, reference compound] | 192 nM | 130%
CC[C@@H]1[C@@H]2[C@@H](F)[C@H](O)CC[C@]2(C)C2CC[C@@]3(C)C(CCC3[C@H](C)CCNC(=O)NS(=O)(=O)c3ccccc3C(F)(F)F)C2[C@@H]1O (stereo partly drawn) [Compound 11, N,N′-(3α,7α-Dihydroxyl-4β-fluoro-6α-ethyl-24-nor-5β-cholan-23-yl)-o-(trifluoromethyl)benzene sulfonyl urea] | 123 nM | 104%
CC[C@@H]1[C@@H]2[C@@H](F)[C@H](O)CC[C@]2(C)C2CC[C@@]3(C)C(CCC3[C@H](C)CCNC(=O)NS(=O)(=O)c3ccc(OC)cc3)C2[C@@H]1O (stereo partly drawn) [Compound 13, N,N′-(3α,7α-Dihydroxyl-4β-fluoro-6α-ethyl-24-nor-5β-cholan-23-yl)-p-methoxybenzene sulfonyl urea] | 48 nM | 250%
CC[C@H]1[C@@H](O)[C@@H]2[C@H](CC[C@]3(C)[C@@H]([C@H](C)CCC(=O)NS(=O)(=O)C4CC4)CC[C@@H]23)[C@@]2(C)CC[C@@H](O)[C@H](F)[C@@H]12 [Comparative compound B, N-(3α,7α-Dihydroxyl-4β-fluoro-6α-ethyl-5β-cholan-24-oyl)-cyclopropyl sulfonamide, reference compound] | 158 nM | 132%
CC[C@@H]1[C@@H]2[C@@H](F)[C@H](O)CC[C@]2(C)C2CC[C@@]3(C)C(CCC3[C@H](C)CCNC(=O)NS(=O)(=O)c3ccc(C)cc3)C2[C@@H]1O (stereo partly drawn) [Compound 1, N,N′-(3α,7α-Dihydroxyl-4β-fluoro-6α-ethyl-24-nor-5β-cholan-23-yl)-p-toluene sulfonyl urea] | 18 nM | 193%
CC[C@@H]1[C@@H]2[C@@H](F)[C@H](O)CC[C@]2(C)C2CC[C@@]3(C)C(CCC3[C@H](C)CCNC(=O)NS(=O)(=O)c3ccc(C(F)(F)F)cc3)C2[C@@H]1O (stereo partly drawn) [Compound 9, N,N′-(3α,7α-Dihydroxyl-4β-fluoro-6α-ethyl-24-nor-5β-cholan-23-yl)-p-(trifluoromethyl)benzene sulfonyl urea] | 50 nM | 158%
CC[C@@H]1[C@@H]2[C@@H](F)[C@H](O)CC[C@]2(C)C2CC[C@@]3(C)C(CCC3[C@H](C)CCNC(=O)NS(=O)(=O)c3cccc(F)c3)C2[C@@H]1O (stereo partly drawn) [Compound 7, N,N′-(3α,7α-Dihydroxyl-4β-fluoro-6α-ethyl-24-nor-5β-cholan-23-yl)-m-fluorobenzene sulfonyl urea] | 38 nM | 131%
